# Data from US6914045B2, “Glycopeptide antibiotics” (Wyeth Holdings Corporation, priority 2001, dated 2005).
# Columns and labels:
# Assay in all cases: in vitro antibacterial evaluation, MIC by broth dilution
# Format in all cases: cell-based
# [1] = system: Enterococcus sp.; settings: broth dilution, 18 hours at 35° C.
# Procedure, shortened: (§1)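 Following National Committee for Clinical Laboratory Standards recommendations (M7-A2), susceptibility was measured by dilution in Muller-Hinton II […]. Bacteria were seeded at 5×10^5 CFU/mL against compound concentrations from 64 down to 0.06 μg/mL.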
# [2] = system: Escherichia coli; settings: for MIC Escherichia coli (ATCC 25922): strain ATCC 25922, 18 hours at 35° C.; for MIC Escherichia coli (GC 4559): strain GC 4559, 18 hours at 35° C.
# Procedure, shortened: as §1
# [3] = system: Staphylococcus sp.; settings: broth dilution, 18 hours at 35° C.; for MIC Staphylococcus aureus (GC 1131): strain GC 1131; for MIC Staphylococcus aureus (ATCC 29213): strain ATCC 29213; for MIC Staphylococcus aureus (GC 3051): strain GC 3051; for MIC Staphylococcus aureus (GC 3053): strain GC 3053; for MIC Staphylococcus aureus (GC 4541): strain GC 4541; for MIC Staphylococcus aureus (GC 4542): strain GC 4542; for MIC Staphylococcus aureus (GC 4544): strain GC 4544; for MIC Staphylococcus aureus (GC 4545): strain GC 4545; for MIC Staphylococcus haemolyticus (GC 4546): strain GC 4546; for MIC Coagulase Negative Staphylococcus (GC 4547): strain GC 4547; for MIC Coagulase Negative Staphylococcus (GC 4548): strain GC 4548; for MIC Coagulase Negative Staphylococcus (GC 4549): strain GC 4549; for MIC Coagulase Negative Staphylococcus (GC 4551): strain GC 4551; for MIC Coagulase Negative Staphylococcus (GC 6257): strain GC 6257
# Procedure, shortened: as §1
# [4] = system: Streptococcus sp.; settings: broth dilution, 18 hours at 35° C.
# Procedure, shortened: as §1
# [5] = Enterococcus faecalis (ATCC 29212)
# [6] = Enterococcus faecalis (GC 2242)
# [7] = Enterococcus faecalis (GC 2691)
# [8] = Enterococcus faecalis (GC 3059)
# [9] = Enterococcus faecalis (GC 4552)
# [10] = Enterococcus faecalis (GC 4553)
# [11] = Enterococcus faecalis (GC 4554)
# [12] = Enterococcus faecalis (GC 6189)
# [13] = Streptococcus agalactiae (GC 4564)
# [14] = Streptococcus pneumoniae (ATCC 6301)
# [15] = Streptococcus pneumoniae (GC 1894)
# [16] = Streptococcus pneumoniae (GC 4565)
# [17] = Streptococcus pyogenes (GC 4563)
structure (smiles),measurement,setting,value
CSc1ccc(C2OCC3OC(OC4C(CO)OC(Oc5ccc(CC6NC(=O)C(C(C)c7ccccc7)NC(=O)CNC(=O)C(CO)NC(=O)C(C(O)C7CNC(=N)N7C7OC(CO)C(O)C(O)C7O)NC(=O)C(C(O)C7CNC(=N)N7)NC6=O)cc5)C(O)C4O)C(O)C(O)C3O2)cc1 (centres unmarked) [Example 144],MIC Enterococcus avium (GC 4558),[1]; Enterococcus avium (GC 4558),4 µg/mL
same,MIC Enterococcus faecalis (ATCC 29212),[1]; [5],2 µg/mL
same,MIC Enterococcus faecalis (GC 2242),[1]; [6],2 µg/mL
same,MIC Enterococcus faecalis (GC 2691),[1]; [7],2 µg/mL
same,MIC Enterococcus faecalis (GC 3059),[1]; [8],4 µg/mL
same,MIC Enterococcus faecalis (GC 4552),[1]; [9],2 µg/mL
same,MIC Enterococcus faecalis (GC 4553),[1]; [10],4 µg/mL
same,MIC Enterococcus faecalis (GC 4554),[1]; [11],4 µg/mL
same,MIC Enterococcus faecalis (GC 6189),[1]; [12],2 µg/mL
same,MIC Enterococcus faecium (GC 2243),[1]; Enterococcus faecium (GC 2243),2 µg/mL
same,MIC Enterococcus faecium (GC 4556),[1]; Enterococcus faecium (GC 4556),2 µg/mL
same,MIC Enterococcus faecium (GC 4557),[1]; Enterococcus faecium (GC 4557),2 µg/mL
same,MIC Enterococcus faecalis (ATCC 29212),[1]; strain ATCC 29212,2 µg/mL
same,MIC Enterococcus faecalis (GC 2242),[1]; strain GC 2242,2 µg/mL
same,MIC Enterococcus faecium (GC 2243),[1]; strain GC 2243,2 µg/mL
same,MIC Enterococcus faecalis (GC 2691),[1]; strain GC 2691,2 µg/mL
same,MIC Enterococcus faecalis (GC 3059),[1]; strain GC 3059,4 µg/mL
same,MIC Enterococcus faecalis (GC 4552),[1]; strain GC 4552,2 µg/mL
same,MIC Enterococcus faecalis (GC 4553),[1]; strain GC 4553,4 µg/mL
same,MIC Enterococcus faecalis (GC 4554),[1]; strain GC 4554,4 µg/mL
same,MIC Enterococcus faecium (GC 4556),[1]; strain GC 4556,2 µg/mL
same,MIC Enterococcus faecium (GC 4557),[1]; strain GC 4557,2 µg/mL
same,MIC Enterococcus avium (GC 4558),[1]; strain GC 4558,4 µg/mL
same,MIC Enterococcus faecalis (GC 6189),[1]; strain GC 6189,2 µg/mL
same,MIC Escherichia coli (ATCC 25922),[2],32 µg/mL
same,MIC Escherichia coli (GC 4559),[2],32 µg/mL
same,MIC Staphylococcus aureus (GC 1131),[3]; inoculum 5×10^5 CFU/mL,1 µg/mL
same,MIC Staphylococcus aureus (ATCC 29213),[3],2 µg/mL
same,MIC Staphylococcus aureus (GC 1131),[3],1 µg/mL
same,MIC Staphylococcus aureus (GC 3051),[3],1 µg/mL
same,MIC Staphylococcus aureus (GC 3053),[3],1 µg/mL
same,MIC Staphylococcus aureus (GC 4541),[3],0.5 µg/mL
same,MIC Staphylococcus aureus (GC 4542),[3],0.5 µg/mL
same,MIC Staphylococcus aureus-SMITH (GC 4543),[3]; strain GC 4543,1 µg/mL
same,MIC Staphylococcus aureus (GC 4544),[3],4 µg/mL
same,MIC Staphylococcus aureus (GC 4545),[3],1 µg/mL
same,MIC Staphylococcus haemolyticus (GC 4546),[3],1 µg/mL
same,MIC Coagulase Negative Staphylococcus (GC 4547),[3],1 µg/mL
same,MIC Coagulase Negative Staphylococcus (GC 4548),[3],0.25 µg/mL
same,MIC Coagulase Negative Staphylococcus (GC 4549),[3],0.12 µg/mL
same,MIC Coagulase Negative Staphylococcus (GC 4551),[3],0.5 µg/mL
same,MIC Coagulase Negative Staphylococcus (GC 6257),[3],0.25 µg/mL
same,MIC Staphylococcus aureus-SMITH (GC 4543),[3]; strain SMITH GC 4543,1 µg/mL
same,MIC Streptococcus agalactiae (GC 4564),[4]; [13],<0.06 µg/mL
same,MIC Streptococcus pneumoniae (ATCC 6301),[4]; [14],<0.06 µg/mL
same,MIC Streptococcus pneumoniae (GC 1894),[4]; [15],<0.06 µg/mL
same,MIC Streptococcus pneumoniae (GC 4565),[4]; [16],<0.06 µg/mL
same,MIC Streptococcus pyogenes (GC 4563),[4]; [17],<0.06 µg/mL
same,MIC Streptococcus pneumoniae (ATCC 6301),[4]; strain ATCC 6301,<0.06 µg/mL
same,MIC Streptococcus pneumoniae (GC 1894),[4]; strain GC 1894,<0.06 µg/mL
same,MIC Streptococcus pyogenes (GC 4563),[4]; strain GC 4563,<0.06 µg/mL
same,MIC Streptococcus agalactiae (GC 4564),[4]; strain GC 4564,<0.06 µg/mL
same,MIC Streptococcus pneumoniae (GC 4565),[4]; strain GC 4565,<0.06 µg/mL
Cc1cc(C2OCC3OC(OC4C(CO)OC(Oc5ccc(CC6NC(=O)C(C(C)c7ccccc7)NC(=O)CNC(=O)C(CO)NC(=O)C(C(O)C7CNC(=N)N7C7OC(CO)C(O)C(O)C7O)NC(=O)C(C(O)C7CNC(=N)N7)NC6=O)cc5)C(O)C4O)C(O)C(O)C3O2)ccc1[N+](=O)[O-] (centres unmarked) [Example 151],MIC Enterococcus avium (GC 4558),[1]; Enterococcus avium (GC 4558),32 µg/mL
same,MIC Enterococcus faecalis (ATCC 29212),[1]; [5],32 µg/mL
same,MIC Enterococcus faecalis (GC 2242),[1]; [6],16 µg/mL
same,MIC Enterococcus faecalis (GC 2691),[1]; [7],32 µg/mL
same,MIC Enterococcus faecalis (GC 3059),[1]; [8],32 µg/mL
same,MIC Enterococcus faecalis (GC 4552),[1]; [9],32 µg/mL
same,MIC Enterococcus faecalis (GC 4553),[1]; [10],32 µg/mL
same,MIC Enterococcus faecalis (GC 4554),[1]; [11],32 µg/mL
same,MIC Enterococcus faecalis (GC 6189),[1]; [12],64 µg/mL
same,MIC Enterococcus faecium (GC 2243),[1]; Enterococcus faecium (GC 2243),32 µg/mL
same,MIC Enterococcus faecium (GC 4556),[1]; Enterococcus faecium (GC 4556),32 µg/mL
same,MIC Enterococcus faecium (GC 4557),[1]; Enterococcus faecium (GC 4557),8 µg/mL
same,MIC Enterococcus faecalis (ATCC 29212),[1]; strain ATCC 29212,32 µg/mL
same,MIC Enterococcus faecalis (GC 2242),[1]; strain GC 2242,16 µg/mL
same,MIC Enterococcus faecium (GC 2243),[1]; strain GC 2243,32 µg/mL
same,MIC Enterococcus faecalis (GC 2691),[1]; strain GC 2691,32 µg/mL
same,MIC Enterococcus faecalis (GC 3059),[1]; strain GC 3059,32 µg/mL
same,MIC Enterococcus faecalis (GC 4552),[1]; strain GC 4552,32 µg/mL
same,MIC Enterococcus faecalis (GC 4553),[1]; strain GC 4553,32 µg/mL
same,MIC Enterococcus faecalis (GC 4554),[1]; strain GC 4554,32 µg/mL
same,MIC Enterococcus faecium (GC 4556),[1]; strain GC 4556,32 µg/mL
same,MIC Enterococcus faecium (GC 4557),[1]; strain GC 4557,8 µg/mL
same,MIC Enterococcus avium (GC 4558),[1]; strain GC 4558,32 µg/mL
same,MIC Enterococcus faecalis (GC 6189),[1]; strain GC 6189,64 µg/mL
same,MIC Escherichia coli (ATCC 25922),[2],>64 µg/mL
same,MIC Escherichia coli (GC 4559),[2],>64 µg/mL
same,MIC Escherichia coli (GC 4560),"[2]; strain GC 4560, 18 hours at 35° C.",2 µg/mL
same,MIC Staphylococcus aureus (GC 1131),[3]; inoculum 5×10^5 CFU/mL,8 µg/mL
same,MIC Staphylococcus aureus (ATCC 29213),[3],8 µg/mL
same,MIC Staphylococcus aureus (GC 1131),[3],8 µg/mL
same,MIC Staphylococcus aureus (GC 3051),[3],8 µg/mL
same,MIC Staphylococcus aureus (GC 3053),[3],16 µg/mL
same,MIC Staphylococcus aureus (GC 4541),[3],4 µg/mL
same,MIC Staphylococcus aureus (GC 4542),[3],8 µg/mL
same,MIC Staphylococcus aureus-SMITH (GC 4543),[3]; strain GC 4543,8 µg/mL
same,MIC Staphylococcus aureus (GC 4544),[3],8 µg/mL
same,MIC Staphylococcus aureus (GC 4545),[3],4 µg/mL
same,MIC Staphylococcus haemolyticus (GC 4546),[3],2 µg/mL
same,MIC Coagulase Negative Staphylococcus (GC 4547),[3],4 µg/mL
same,MIC Coagulase Negative Staphylococcus (GC 4548),[3],4 µg/mL
same,MIC Coagulase Negative Staphylococcus (GC 4549),[3],2 µg/mL
same,MIC Coagulase Negative Staphylococcus (GC 4551),[3],8 µg/mL
same,MIC Coagulase Negative Staphylococcus (GC 6257),[3],2 µg/mL
same,MIC Staphylococcus aureus-SMITH (GC 4543),[3]; strain SMITH GC 4543,8 µg/mL
same,MIC Streptococcus agalactiae (GC 4564),[4]; [13],4 µg/mL
same,MIC Streptococcus pneumoniae (ATCC 6301),[4]; [14],1 µg/mL
same,MIC Streptococcus pneumoniae (GC 1894),[4]; [15],0.5 µg/mL
same,MIC Streptococcus pneumoniae (GC 4565),[4]; [16],1 µg/mL
same,MIC Streptococcus pyogenes (GC 4563),[4]; [17],2 µg/mL
same,MIC Streptococcus pneumoniae (ATCC 6301),[4]; strain ATCC 6301,1 µg/mL
same,MIC Streptococcus pneumoniae (GC 1894),[4]; strain GC 1894,0.5 µg/mL
same,MIC Streptococcus pyogenes (GC 4563),[4]; strain GC 4563,2 µg/mL
same,MIC Streptococcus agalactiae (GC 4564),[4]; strain GC 4564,4 µg/mL
same,MIC Streptococcus pneumoniae (GC 4565),[4]; strain GC 4565,1 µg/mL
